According to PubChem BioAssay AID2060905 (Molecular Pharmacology Branch, DTP, NCI, 2025):

System: 282377-053-R-J1-PDC complex spheroid viability
Assay: Anticancer human tumor 282377-053-R-J1-PDC patient-derived colon adenocarcinoma cell line growth inhibition [RAS]
Details: for IC50: curve of first compound; for viability, T/C: stronger effect = lower value
Description: RAS pathway inhibitors in Combinations in Complex Spheroids
A high-throughput screen of multi-cell type tumor spheroids was designed to identify active combinations of RAS pathway inhibitors and targeted small molecules. Complex spheroids include a stromal component modeled by human endothelial cells (HUVEC) and fibroblasts modeled by human mesenchymal stem cells (MSCs). The concentration ranges selected for each drug and investigational agent were based upon clinically achievable concentrations if the clinical Cmax of the agent was known.
Compounds. The drugs and investigational agents: abemaciclib (NSC768073), cobimetinib (NSC768068), divarasib (GDC6063, NSC841802), docetaxel (NSC628503), GDC-1971 (RLY-1971, NSC841576), gemcitabine (NSC613327), inavolisib (NSC800729), ipatasertib (NSC767898), KB-0742 (NSC834161), MRTX-1133 (NSC836407), osimertinib (NSC779217), RMC-4630 (NSC839698), RMC-6236 (NSC851965), RMC-6291 (NSC852671), Ro-3306 (NSC812927), sapanisertib (NSC764658), SN-38 (NSC673596), staurosporine (NSC755774), SY5609 (NSC837396), and tovorafenib (DAY101, NSC766906), were obtained from the National Cancer Institute (NCI) Developmental Therapeutics Program Chemical Repository. The FDA-approved anticancer drug set is available from the NCI Developmental Therapeutics Program. […] The stock solutions were prepared in dimethyl sulfoxide (DMSO, Sigma-Aldrich, St. Louis, MO, cat. D2650) at 800-fold the tested concentration and stored at -70 degrees C prior to their use. All drugs and investigational agents were tested over a range starting from a high concentration at or near the clinical Cmax and decreasing in half-log increments. If the clinical Cmax for an agent had not been determined, the highest concentration tested was 10 microM.
Cell Culture. All cells were maintained in an incubator at 37 degrees C and 5% CO2 with 95% humidity. The PDC lines were cultured according to standard operating procedures established by the NCI PDMR. All PDCs were thawed and cultured in Matrigel-coated flasks prepared with a working solution of 1X Ham's F-12 nutrient mix, without supplementation (Invitrogen, Waltham, MA, cat. 11765054), 100 U/mL penicillin-streptomycin (Invitrogen, cat. 15140122), and 2.5% Matrigel (Corning Inc., Corning, NY, cat. 354248) for the first three passages. The 362531-283-R-J2-PDC and 782815-120-R-J1-PDC lines were cultured in 6C/Colon 1B media, which includes advanced DMEM/F-12 (Thermo Fisher Scientific, cat. 12634028), 10 mM HEPES (Thermo Fisher Scientific, cat. 15630080), 1X GlutaMAX supplement (Thermo Fisher Scientific, cat. 35050061), 0.1 mg/mL primocin (InvivoGen, San Diego, CA, cat. ant-pm-2), 10% defined fetal bovine serum, heat inactivated (HyClone Laboratories Inc., Logan, UT, cat. SH30070.03HI), 50% L-WRN conditioned media (ATCC, cat. CRL-3276), 1.25 mM N-Acetyl-L-cysteine (Sigma-Aldrich, cat. A9165), 10 mM nicotinamide (Sigma-Aldrich, cat. N0636), 1X B-27 supplement (Thermo Fisher Scientific, cat. 17504044), 1X N-2 supplement (Thermo Fisher Scientific, cat. 17502048), 50 ng/mL human EGF (Thermo Fisher Scientific, cat. PHG0311), and 10 microM Y-27632 dihydrochloride (Tocris Bioscience, cat. 1254). The K12877-001-R-J1-PDC line was cultured in 6I media, which includes all 6C/Colon 1B media plus 10 ng/mL human FGF-10 (PeproTech, cat. 100-26), 1 ng/mL human FGF-2 (PeproTech, cat. 100-18B), 1 µM prostaglandin E2 (Tocris Bioscience, cat. 2296), […] hydrocortisone (Sigma-Aldrich, cat. H4001), and […] bovine insulin (Sigma-Aldrich, cat. I6634). The K86415-001-R-J1-PDC line was cultured in 6D media, which includes all 6C/Colon 1B media components minus the L-WRN conditioned media. The 485176-168-R4-J1-PDC was cultured in PANC media, which includes all 6C/Colon 1B media plus 100 ng/mL human FGF-10 (PeproTech, cat. 100-26), 500 nM SB-431542 (Selleckchem, cat. S1067), and 10 nM gastrin (Tocris Bioscience, cat. 3006). […]
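Further: spheroids exposed to agents for seven days before readout.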
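Wherever viability, T/C is given: luminescence viability as percent of DMSO vehicle control wells.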

Molecule CCC(CC)c1cc(NC2CCC(N)C2)n2nccc2n1 (configuration not stated) + CCn1c(-c2cccnc2C(C)OC)c2c3cc(ccc31)N1CCOC(CC(NC(=O)C(C(C)C)N(C)C(=O)C3(F)CCN(C(=O)C#CC(C)(C)N(C)C)CC3)C(=O)N3CCCC(N3)C(=O)OCC(C)(C)C2)C1 has an IC50 (second compound 0.000949 µM) of 1720 nM, an IC50 (second compound 0.003 µM) of 1670 nM and an IC50 (second compound 0.00949 µM) of 1760 nM. It also gave an IC50 (second compound 0.03 µM) of 1850 nM, an IC50 (second compound 0.0949 µM) of 1610 nM and an IC50 (second compound 0.3 µM) of 1780 nM. The viability, T/C (second compound 0.000949 µM, first compound 0.0316 µM) was 98.1%, the viability, T/C (second compound 0.000949 µM, first compound 0.1 µM) was 105% and the viability, T/C (second compound 0.000949 µM, first compound 0.316 µM) was 81.3%. For the same molecule, the viability, T/C (second compound 0.000949 µM, first compound 1 µM) was 87%, the viability, T/C (second compound 0.000949 µM, first compound 3.16 µM) was 8.86% and the viability, T/C (second compound 0.000949 µM, first compound 10 µM) was 3.59%. It also gave a viability, T/C (second compound 0.003 µM, first compound 0.0316 µM) of 86.3%, a viability, T/C (second compound 0.003 µM, first compound 0.1 µM) of 105% and a viability, T/C (second compound 0.003 µM, first compound 0.316 µM) of 79.4%. The viability, T/C (second compound 0.003 µM, first compound 1 µM) was 81.4%, the viability, T/C (second compound 0.003 µM, first compound 3.16 µM) was 10.8% and the viability, T/C (second compound 0.003 µM, first compound 10 µM) was 3.49%. For the same molecule, the viability, T/C (second compound 0.00949 µM, first compound 0.0316 µM) was 114%, the viability, T/C (second compound 0.00949 µM, first compound 0.1 µM) was 93.9% and the viability, T/C (second compound 0.00949 µM, first compound 0.316 µM) was 99%. It also gave a viability, T/C (second compound 0.00949 µM, first compound 1 µM) of 89%, a viability, T/C (second compound 0.00949 µM, first compound 3.16 µM) of 9.93% and a viability, T/C (second compound 0.00949 µM, first compound 10 µM) of 2.98%. It also gave a viability, T/C (second compound 0.03 µM, first compound 0.0316 µM) of 81.2%, a viability, T/C (second compound 0.03 µM, first compound 0.1 µM) of 111% and a viability, T/C (second compound 0.03 µM, first compound 0.316 µM) of 102%. It also gave a viability, T/C (second compound 0.03 µM, first compound 1 µM) of 95.3%, a viability, T/C (second compound 0.03 µM, first compound 3.16 µM) of 10.7% and a viability, T/C (second compound 0.03 µM, first compound 10 µM) of 4.2%. The viability, T/C (second compound 0.0949 µM, first compound 0.0316 µM) was 96.8%, the viability, T/C (second compound 0.0949 µM, first compound 0.1 µM) was 110% and the viability, T/C (second compound 0.0949 µM, first compound 0.316 µM) was 89.8%. It also gave a viability, T/C (second compound 0.0949 µM, first compound 1 µM) of 77.4%, a viability, T/C (second compound 0.0949 µM, first compound 3.16 µM) of 11.2% and a viability, T/C (second compound 0.0949 µM, first compound 10 µM) of 4.78%. It also gave a viability, T/C (second compound 0.3 µM, first compound 0.0316 µM) of 112%, a viability, T/C (second compound 0.3 µM, first compound 0.1 µM) of 90.2% and a viability, T/C (second compound 0.3 µM, first compound 0.316 µM) of 95%. The viability, T/C (second compound 0.3 µM, first compound 1 µM) was 87.6%, the viability, T/C (second compound 0.3 µM, first compound 3.16 µM) was 12.6% and the viability, T/C (second compound 0.3 µM, first compound 10 µM) was 4.08%.
